# Where a SMILES comes first, the peptide text is derived from it.
# Tests used:
# S. aureus (NCTC10788) = format: cell-based, Staphylococcus aureus; conditions: for MIC: NCTC10788, 16 h; for MBC: NCTC10788, 18 h
# Description: (§1) The antimicrobial activity of both natural and designed peptides was evaluated by MIC and MBC assays utilizing the broth dilution method. Microorganisms including S. aureus (NCTC10788), MRSA (NCTC 12493 and ATCC43300), Escherichia coli (E. coli) (NCTC 10418), Pseudomonas aeruginosa (P. aeruginosa) (ATCC 27853), Candida albicans (C. albicans) (NCYC 1467) and four clinical MRSA strains (DTMR8, DTMR24, DTMR37, and DTMR121) obtained at the First People’s Hospital of Zhenjiang, China were used. Molecular identification of these four clinical isolates was performed by PCR targeting mecA gene prior to use. After incubation of peptides (ranging from 1 μM to 512 μM, twofold serial dilution) and diluted microorganism cultures for 16 h, the absorbance values of the wells of the 96-well plates were detected at 550 nm with a Synergy HT plate reader (Biotech, United States) and the MICs were defined as the lowest concentration of peptides at which no apparent growth was detected. Ten microliters of culture in the wells were loaded onto Mueller-Hinton agar (MHA) medium and incubated at 37°C for another 18 h. The MBC of the peptide against a microbe was defined as the lowest concentration at which no evidence of colony growth was observed. Five replications were employed for all peptides with different concentrations and controls, and all measurements were made in triplicate.
# E. coli (NCTC10418) = format: cell-based, Escherichia coli; conditions: for MIC: NCTC10418, 16 h
# Description: as §1
# C. albicans (NCYC1467) = format: cell-based, Candida albicans; conditions: for MIC: NCYC1467, 16 h; for MBC: NCYC1467, 18 h
# Description: as §1
# BALB/c mice = test: In vivo acute toxicity, 7-day mortality; conditions: single i.p. injection
# Description: Mice were administered with 20.0 and 40 mg/kg of nigrocin-HL and nigrocin-HLM (i.p.) and a 7-day mortality was recorded.
# (§2) FIGURE 5 Toxicities of nigrocin-HL and its analog nigrocin-HLM in vitro and in vivo. Cytotoxicity of nigrocin-HL and nigrocin-HLM against (A) HaCaT and (B) 16HBE. Living cells after treatment with peptides were measured utilizing CCK8 assays, and viability was calculated relative to the untreated control. (C) Hemolysis of nigrocin-HL and nigrocin-HLM was determined against horse erythrocytes. All data represent mean ± SD from three independent experiments performed in triplicate (^∗P < 0.05, ^∗∗∗P < 0.001, compared with nigrocin-HL control group; ^###P < 0.001, compared with nigrocin-HLM control group). (D) In vivo toxicities of these two AMPs. Survival rate of mice in 7 days after single i.p. injection of nigrocin-HL and nigrocin-HLM (20 and 40 mg/kg) was recorded.
# horse erythrocytes = format: cell-based
# Description: Hemolytic property of peptides was measured using erythrocytes prepared from defibrinated horse blood (TCS Biosciences, Botolph Claydon, Buckingham, United Kingdom) as indicated previously ([Wu et al., 2016]).
# as §2
# [1] = tested on: P. aeruginosa (ATCC27853); format: cell-based, Pseudomonas aeruginosa
# Description: as §1
# mature MRSA biofilm = format: cell-based, methicillin-resistant S. aureus
# Description: Minimum biofilm eradication concentration (MBEC) assay was carried out with a modified microtiter plate method as described previously ([Gao et al., 2017]).
# FIGURE 4 Minimum biofilm eradication concentration (MBEC) of peptides against mature MRSA biofilm. All data represent means ± SD from three independent experiments performed in triplicate (^∗∗∗∗P < 0.0001 versus the viability of the corresponding concentration of nigrocin-HL).
# [2] = tested on: clinical MRSA strain DTMR8; format: cell-based, methicillin-resistant S. aureus
# Description: as §1
# [3] = tested on: clinical MRSA strain DTMR37; format: cell-based, methicillin-resistant S. aureus
# Description: as §1
# [4] = tested on: clinical MRSA strain DTMR121; format: cell-based, methicillin-resistant S. aureus
# Description: as §1
# [5] = tested on: clinical MRSA strain DTMR24; format: cell-based, methicillin-resistant S. aureus
# Description: as §1
# MRSA (NCTC12493) = format: cell-based, methicillin-resistant S. aureus; conditions: NCTC12493, 16 h
# Description: as §1
# MRSA (ATCC43300) = format: cell-based, methicillin-resistant S. aureus
# Description: as §1
# [6] = tested on: human keratinocyte cell line HaCaT; format: cell-based
# Description: (§3) Human keratinocyte cell line HaCaT and human bronchial epithelial cell line 16HBE were obtained from the ATCC. Cells were harvested and diluted to 5 × 10^4 cells/ml using fresh medium. Ninety-nine microliters of diluted cells and 1 μl of peptides (final concentration ranging from 1 to 512 μM, twofold serial dilution, five duplicates) were mixed and seeded into 96-well culture plates. After incubation for 24 h, 10 μl CCK-8 was added into each well, followed by incubation at 37°C for 2 h. Absorbance of each well was determined, and the viabilities of cells were calculated as percentages of the control.
# as §2
# [7] = tested on: human bronchial epithelial cell line 16HBE; format: cell-based
# Description: as §3, §2
# [8] = Circular dichroism, percentage of α-helix by K2D3; format: physicochemical; conditions: CD 190-250 nm, 20°C, 50% TFE in 10 mM ammonium acetate buffer, 100 μM peptide (legend: 50 μM)
# Description: Additionally, circular dichroism (CD) analyses were carried out utilizing a JASCO J815 Spectropolarimeter (JASCO Inc., United States). Samples were measured within the range of 190-250 nm at 20°C. The parameters were set as: 200 nm/min scanning speed, a bandwidth of 1 nm, and 0.5 nm data pitch. Both peptide samples were dissolved in […] ammonium acetate buffer and 50% TFE in 10 mM ammonium acetate buffer at a concentration of 100 μM. The percentage of the α-helix structure was predicted by the website […]^2 ([Louis-Jeune et al., 2012]).
SMILES,MIC (S. aureus (NCTC10788)) [µg/mL],MBC (S. aureus (NCTC10788)) [µg/mL],MIC (E. coli (NCTC10418)) [µg/mL],MIC (C. albicans (NCYC1467)) [µg/mL],MBC (C. albicans (NCYC1467)) [µg/mL],7-day mortality (BALB/c mice; 20 mg/kg),7-day mortality (BALB/c mice; 40 mg/kg),hemolytic activity (in words) (horse erythrocytes),MBEC (mature MRSA biofilm) [µM],lowest dosage at which cell growth inhibition occurred [6] [µM],lowest dosage at which cell growth inhibition occurred [7] [µM],also measured
CC[C@H](C)[C@H](NC(=O)CNC(=O)[C@H](CO)NC(=O)[C@H](CC(C)C)NC(=O)[C@H](CC(C)C)NC(=O)CN)C(=O)N[C@@H](CC(C)C)C(=O)NCC(=O)N[C@@H](C)C(=O)NCC(=O)N[C@@H](CCCCN)C(=O)N[C@@H](CCCCN)C(=O)N[C@H](C(=O)N[C@H](C(=O)O)C(C)C)[C@@H](C)CC [Nigrocin-HLD] (H-GLLSGILGAGKKIV-OH; N-terminus and C-terminus assumed),42.43,169.73,84.87,42.43,339.46,–,–,–,–,–,–,–
CC[C@H](C)[C@H](NC(=O)CNC(=O)[C@H](CO)NC(=O)[C@H](CC(C)C)NC(=O)[C@H](CC(C)C)NC(=O)CN)C(=O)N[C@@H](CC(C)C)C(=O)NCC(=O)N[C@@H](C)C(=O)NCC(=O)N[C@@H](CCCCN)C(=O)N[C@@H](CCCCN)C(=O)N[C@H](C(=O)N[C@H](C(=O)N[C@@H](Cc1ccccc1)C(N)=O)C(C)C)[C@@H](C)CC [Nigrocin-HLM] (H-GLLSGILGAGKKIVF-NH2),2.94,5.89,11.77,2.94,5.89,no mortality was observed,no mortality was observed,negligible hemolytic activity,8,> 512,> 512,"concentration up to which devoid of hemolytic activity (horse erythrocytes): > 128 µM; MIC ([1]; ATCC27853, 16 h): 32 µM; MBC ([1]; ATCC27853, 18 h): 32 µM; MBC (E. coli (NCTC10418); NCTC10418, 18 h): 23.55 µg/mL; MIC ([2]; clinical strain DTMR8, 16 h): 1 µM; MBC ([2]; clinical strain DTMR8, 18 h): 2.94 µg/mL; MIC ([3]; clinical strain DTMR37, 16 h): 1 µM; MBC ([3]; clinical strain DTMR37, 18 h): 2.94 µg/mL; MIC ([4]; clinical strain DTMR121, 16 h): 1 µM; MBC ([4]; clinical strain DTMR121, 18 h): 1.47/1.47 mg/l; MIC ([5]; clinical strain DTMR24, 16 h): 1 µM; MBC ([5]; clinical strain DTMR24, 18 h): 1.47/1.47 mg/l; MIC (MRSA (NCTC12493)): 4 µM; MIC (MRSA (ATCC43300); ATCC43300, 16 h): 1 µM; MBC (MRSA (ATCC43300); ATCC43300, 18 h): 5.89 µg/mL"
"CC[C@H](C)[C@H](NC(=O)CNC(=O)[C@H](CO)NC(=O)[C@H](CC(C)C)NC(=O)[C@H](CC(C)C)NC(=O)CN)C(=O)N[C@@H](CC(C)C)C(=O)NCC(=O)N[C@@H](C)C(=O)NCC(=O)N[C@@H](CCCCN)C(=O)N[C@@H](CCCCN)C(=O)N[C@H](C(=O)N[C@H](C(=O)N[C@H]1CSSC[C@@H](C(=O)O)NC(=O)[C@H](CC(C)C)NC(=O)CNC(=O)[C@H](CO)NC(=O)[C@H](CC(C)C)NC(=O)CNC1=O)C(C)C)[C@@H](C)CC [Nigrocin-HL] (HELM PEPTIDE1{G.L.L.S.G.I.L.G.A.G.K.K.I.V.C.G.L.S.G.L.C}$PEPTIDE1,PEPTIDE1,15:R3-21:R3$$$V2.0; N-terminus and C-terminus assumed)",62.70,250.81,125.40,62.70,501.61,mice all died from day 3 to day 7,mice all died from day 3 to day 7,obvious hemolysis,> 16,32,32,Helicity (%) [8]: 31.28%
